# Results: the supplement of paper PMC10307832
# Key:
# Test in all cases: relative viability (nuclei count vs DMSO), 5 days (fraction); higher = more cells survive
# NCI-H661 = test system: NCI-H661
# How it was run: (§1)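 Each reported value is a median over duplicate plates. It expresses relative viability: treated-well nuclei count divided by vehicle-well nuclei count. Lung cancer cell lines in 1536-well plates were dosed by pin tool a day after seeding, alone with one drug or with a fixed anchor-drug dose plus five library-drug doses (not always all listed) in √10 steps, and nuclei were counted after 5 days.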
# NCI-H647 = test system: NCI-H647
# How it was run: as §1
# LOU-NH91 = test system: LOU-NH91
# How it was run: as §1
# NCI-H2126 = test system: NCI-H2126
# How it was run: as §1
# NCI-H2085 = test system: NCI-H2085
# How it was run: as §1
# NCI-H1975 = test system: NCI-H1975
# How it was run: as §1
# HARA = test system: HARA
# How it was run: as §1
# NCI-H1651 = test system: NCI-H1651
# How it was run: as §1
# BEN = test system: BEN
# How it was run: as §1
# CAL-12T = test system: CAL-12T
# How it was run: as §1
# NCI-H1666 = test system: NCI-H1666
# How it was run: as §1
# RERF-LC-KJ = test system: RERF-LC-KJ
# How it was run: as §1
# LCLC-103H = test system: LCLC-103H
# How it was run: as §1
# NCI-H1944 = test system: NCI-H1944
# How it was run: as §1
# NCI-H520 = test system: NCI-H520
# How it was run: as §1
# NCI-H596 = test system: NCI-H596
# How it was run: as §1
# NCI-H1734 = test system: NCI-H1734
# How it was run: as §1
# NCI-H460 = test system: NCI-H460
# How it was run: as §1
# SW 900 = test system: SW 900
# How it was run: as §1
# A-427 = test system: A-427
# How it was run: as §1
# NCI-H838 = test system: NCI-H838
# How it was run: as §1
# NCI-H727 = test system: NCI-H727
# How it was run: as §1
smiles,measurement,setting,value
CCNC(=O)c1noc(-c2cc(C(C)C)c(O)cc2O)c1-c1ccc(CN2CCOCC2)cc1 [Luminespib] + CC(=O)Nc1cccc(-n2c(=O)n(C3CC3)c(=O)c3c(Nc4ccc(I)cc4F)n(C)c(=O)c(C)c32)c1 [Trametinib] (partner 0.02 µM),relative viability,NCI-H661; first compound 0.002 µM,0.56
same,relative viability,NCI-H661; first compound 0.006325 µM,0.553
same,relative viability,NCI-H661; first compound 0.02 µM,0.382
same,relative viability,NCI-H661; first compound 0.06325 µM,0.265
same,relative viability,NCI-H661; first compound 0.2 µM,0.256
same,relative viability,NCI-H647; first compound 0.002 µM,0.507
same,relative viability,NCI-H647; first compound 0.006325 µM,0.508
same,relative viability,NCI-H647; first compound 0.02 µM,0.195
same,relative viability,NCI-H647; first compound 0.06325 µM,0.0973
same,relative viability,NCI-H647; first compound 0.2 µM,0.0815
same,relative viability,LOU-NH91; first compound 0.002 µM,0.807
same,relative viability,LOU-NH91; first compound 0.006325 µM,0.775
same,relative viability,LOU-NH91; first compound 0.02 µM,0.6
same,relative viability,LOU-NH91; first compound 0.06325 µM,0.417
same,relative viability,LOU-NH91; first compound 0.2 µM,0.385
same,relative viability,NCI-H2126; first compound 0.002 µM,0.608
same,relative viability,NCI-H2126; first compound 0.006325 µM,0.608
same,relative viability,NCI-H2126; first compound 0.06325 µM,0.667
same,relative viability,NCI-H2126; first compound 0.2 µM,0.599
same,relative viability,NCI-H2085; first compound 0.002 µM,0.535
same,relative viability,NCI-H2085; first compound 0.006325 µM,0.507
same,relative viability,NCI-H2085; first compound 0.02 µM,0.33
same,relative viability,NCI-H2085; first compound 0.06325 µM,0.202
same,relative viability,NCI-H2085; first compound 0.2 µM,0.241
same,relative viability,NCI-H1975; first compound 0.002 µM,0.349
same,relative viability,NCI-H1975; first compound 0.006325 µM,0.334
same,relative viability,NCI-H1975; first compound 0.02 µM,0.168
same,relative viability,NCI-H1975; first compound 0.06325 µM,0.107
same,relative viability,NCI-H1975; first compound 0.2 µM,0.118
same,relative viability,HARA; first compound 0.002 µM,0.667
same,relative viability,HARA; first compound 0.006325 µM,0.614
same,relative viability,HARA; first compound 0.02 µM,0.471
same,relative viability,HARA; first compound 0.06325 µM,0.121
same,relative viability,HARA; first compound 0.2 µM,0.141
same,relative viability,NCI-H1651; first compound 0.002 µM,0.787
same,relative viability,NCI-H1651; first compound 0.006325 µM,0.798
same,relative viability,NCI-H1651; first compound 0.02 µM,0.634
same,relative viability,NCI-H1651; first compound 0.06325 µM,0.754
same,relative viability,NCI-H1651; first compound 0.2 µM,0.609
same,relative viability,BEN; first compound 0.002 µM,1.11
same,relative viability,BEN; first compound 0.006325 µM,1
same,relative viability,BEN; first compound 0.02 µM,0.481
same,relative viability,BEN; first compound 0.06325 µM,0.748
same,relative viability,BEN; first compound 0.2 µM,0.341
same,relative viability,CAL-12T; first compound 0.002 µM,0.321
same,relative viability,CAL-12T; first compound 0.006325 µM,0.356
same,relative viability,CAL-12T; first compound 0.02 µM,0.162
same,relative viability,CAL-12T; first compound 0.06325 µM,0.111
same,relative viability,CAL-12T; first compound 0.2 µM,0.117
same,relative viability,NCI-H1666; first compound 0.002 µM,0.845
same,relative viability,NCI-H1666; first compound 0.006325 µM,0.869
same,relative viability,NCI-H1666; first compound 0.02 µM,0.942
same,relative viability,NCI-H1666; first compound 0.06325 µM,0.818
same,relative viability,NCI-H1666; first compound 0.2 µM,0.982
same,relative viability,RERF-LC-KJ; first compound 0.002 µM,0.867
same,relative viability,RERF-LC-KJ; first compound 0.006325 µM,0.903
same,relative viability,RERF-LC-KJ; first compound 0.02 µM,0.711
same,relative viability,RERF-LC-KJ; first compound 0.06325 µM,0.437
same,relative viability,RERF-LC-KJ; first compound 0.2 µM,0.21
same,relative viability,LCLC-103H; first compound 0.002 µM,0.625
same,relative viability,LCLC-103H; first compound 0.006325 µM,0.657
same,relative viability,LCLC-103H; first compound 0.02 µM,0.699
same,relative viability,LCLC-103H; first compound 0.06325 µM,0.693
same,relative viability,LCLC-103H; first compound 0.2 µM,0.689
same,relative viability,NCI-H1944; first compound 0.002 µM,0.467
same,relative viability,NCI-H1944; first compound 0.006325 µM,0.4
same,relative viability,NCI-H1944; first compound 0.02 µM,0.387
same,relative viability,NCI-H1944; first compound 0.06325 µM,0.405
same,relative viability,NCI-H1944; first compound 0.2 µM,0.354
same,relative viability,NCI-H520; first compound 0.002 µM,0.795
same,relative viability,NCI-H520; first compound 0.006325 µM,0.606
same,relative viability,NCI-H520; first compound 0.02 µM,0.371
same,relative viability,NCI-H520; first compound 0.06325 µM,0.114
same,relative viability,NCI-H520; first compound 0.2 µM,0.138
same,relative viability,NCI-H596; first compound 0.002 µM,0.873
same,relative viability,NCI-H596; first compound 0.006325 µM,0.835
same,relative viability,NCI-H596; first compound 0.02 µM,0.743
same,relative viability,NCI-H596; first compound 0.06325 µM,0.806
same,relative viability,NCI-H596; first compound 0.2 µM,0.646
same,relative viability,NCI-H1734; first compound 0.002 µM,0.65
same,relative viability,NCI-H1734; first compound 0.006325 µM,0.586
same,relative viability,NCI-H1734; first compound 0.02 µM,0.579
same,relative viability,NCI-H1734; first compound 0.06325 µM,0.199
same,relative viability,NCI-H1734; first compound 0.2 µM,0.172
same,relative viability,NCI-H460; first compound 0.002 µM,0.205
same,relative viability,NCI-H460; first compound 0.006325 µM,0.124
same,relative viability,NCI-H460; first compound 0.02 µM,0.0112
same,relative viability,NCI-H460; first compound 0.06325 µM,0.0128
same,relative viability,NCI-H460; first compound 0.2 µM,0.0152
same,relative viability,SW 900; first compound 0.002 µM,0.837
same,relative viability,SW 900; first compound 0.006325 µM,0.919
same,relative viability,SW 900; first compound 0.02 µM,0.659
same,relative viability,SW 900; first compound 0.06325 µM,0.165
same,relative viability,SW 900; first compound 0.2 µM,0.131
same,relative viability,A-427; first compound 0.002 µM,0.771
same,relative viability,A-427; first compound 0.006325 µM,0.74
same,relative viability,A-427; first compound 0.02 µM,0.632
same,relative viability,A-427; first compound 0.06325 µM,0.607
same,relative viability,A-427; first compound 0.2 µM,0.281
same,relative viability,NCI-H838; first compound 0.002 µM,0.582
same,relative viability,NCI-H838; first compound 0.006325 µM,0.474
same,relative viability,NCI-H838; first compound 0.02 µM,0.294
same,relative viability,NCI-H838; first compound 0.06325 µM,0.093
same,relative viability,NCI-H838; first compound 0.2 µM,0.134
same,relative viability,NCI-H727; first compound 0.002 µM,0.422
same,relative viability,NCI-H727; first compound 0.006325 µM,0.397
same,relative viability,NCI-H727; first compound 0.02 µM,0.404
same,relative viability,NCI-H727; first compound 0.06325 µM,0.247
same,relative viability,NCI-H727; first compound 0.2 µM,0.253
